These results are taken from ChEMBL document CHEMBL1151292, “Antineoplastic activity and cytotoxicity of flavones, isoflavones, and flavanones” (1979).

One test concerns CA-755. Nature of the test: In vivo antitumor activity against mouse CA-755 cells. The test is classed as functional, organism-based.
Another test has as its system L1210. Nature of the test: In vivo antitumor activity against mouse L1210 cells. Format: functional, organism-based.
Test [1] concerns Lewis lung carcinoma cell line. Nature of the test: In vivo antitumor activity against mouse LLC cells. Format: functional, organism-based.
Another test relates to CCRF S-180. Nature of the test: In vivo antitumor activity against mouse S180 cells. The test is classed as functional, organism-based.
In the next test the test system is Walker 256. Nature of the test: In vivo antitumor activity against rat Walker 256 cells. Format: functional, organism-based.
Another test has as its system KB. Nature of the test: Cytotoxicity against human KB cells. The test is classed as functional. As to conditions: read-out: ED50 (the source's name).

≈ marks a conversion by molar mass, not a printed value. Calls of active or inactive are those of the source. Some results are limits rather than exact numbers.

As to `O=C1c2ccc(O)cc2OC(c2ccc(O)c(O)c2)C1O` (stereo not given), the result (with CA-755; in the test with L1210; in test [1]; in the test with CCRF S-180) was inactive.

`O=C1c2c(O)cc(O)cc2OC(c2ccc(O)c(O)c2)C1O` (stereo not given) [TAXIFOLIN]: the result in the test with CA-755, in the test with Walker 256 and in the test with CCRF S-180 was inactive. Besides, the EC50 in the test on KB was 40 µg/mL (≈ 131 µM).

On to `COC1(O)C(=O)c2ccccc2OC1(OC)c1ccc(C)cc1` (stereo not given), for which the outcome in the test on L1210 and in the test with Walker 256 was inactive.

With `COc1ccc2c(c1)C(=O)C(O)(OC)C(OC)(c1ccccc1)O2` (stereo not given), the outcome in the test on L1210 and with Walker 256 was inactive.

With `O=c1cc(-c2cccc(F)c2)oc2ccccc12`, the outcome (in the test on L1210; in test [1]; in the test on CCRF S-180) was inactive.

Turning to `COc1ccc(-c2oc3cc(OC)ccc3c(=O)c2O)cc1`, the result (with CA-755; with L1210; in test [1]) was inactive.

Regarding `COc1ccc(-c2cc(=O)c3c(OC)c(OC)c(OC)cc3o2)cc1`, the result in the test with CA-755, in the test with L1210 and with CCRF S-180 was inactive. In addition, the EC50 in the test with KB came to 27 µg/mL (≈ 78.9 µM).

As for `COc1ccc(-c2cc(=O)c3c(OC)c(OC)c(OC)c(OC)c3o2)cc1OC` [NOBILETIN], the result (with Walker 256; in test [1]) was inactive. In addition, the EC50 in the test with KB was 3 µg/mL (≈ 7.46 µM).

For `COc1cc(O)c2c(=O)c(O[C@@H]3O[C@H](CO[C@@H]4O[C@@H](C)[C@H](O)[C@@H](O[C@@H]5O[C@@H](C)[C@H](O)[C@@H](O)[C@H]5O)[C@H]4O)[C@@H](O)[C@H](O)[C@H]3O)c(-c3ccc(O)c(O)c3)oc2c1`, the result (with CA-755; in the test on L1210; in test [1]; in the test with CCRF S-180) was inactive. The EC50 in the test with KB came to 8.5 µg/mL (≈ 11 µM).

For the compound `COc1ccc2c(=O)c(N(S(C)(=O)=O)S(C)(=O)=O)c(-c3ccccc3)oc2c1CN(C)C`, the result with CA-755, in the test with L1210 and in the test on CCRF S-180 was inactive. The EC50 with KB is over 100 µg/mL.

With `O=c1cc(-c2ccccc2)oc2ccc(F)cc12`, the outcome (in test [1]; with CCRF S-180) was inactive.

As to `COc1cc(-c2cc(=O)c3c(OC)c(OC)c(OC)c(OC)c3o2)cc(OC)c1OC` [HEPATAMETHOXYFLAVONE], the result (with CA-755; with L1210; in test [1]; with CCRF S-180) was inactive. Also, in the test on KB, the EC50 is 0.5 µg/mL (≈ 1.16 µM).

`Cc1oc2cc(O)ccc2c(=O)c1-c1ccccc1Br`: the outcome in the test on CA-755, in the test on L1210 and in the test on CCRF S-180 was inactive. Further, the EC50 in the test with KB was 66 µg/mL (≈ 199 µM).

As for `O=c1cc(-c2ccc(F)cc2)oc2ccccc12`, the result (with L1210; in test [1]; in the test with CCRF S-180) was inactive.

With `O=C1CC(c2ccccc2)Oc2ccc(Cl)cc21` (stereo not given), the result in the test with CA-755, in the test on L1210 and in the test on CCRF S-180 was inactive. The EC50 with KB came to 1 µg/mL (≈ 3.87 µM).

`CC(=O)Nc1c(-c2ccccc2)oc2ccccc2c1=O`: the outcome in the test on CA-755, in the test with L1210 and with CCRF S-180 was inactive. For the same compound, in the test on KB, the EC50 is over 100 µg/mL.

Regarding `Cl.NC1C(=O)c2ccccc2OC1c1ccccc1` (stereo not given), the result with CA-755, with L1210 and in the test with CCRF S-180 was inactive. The EC50 in the test with KB came to 3 µg/mL.

With `COc1ccc(C2(OC)Oc3ccccc3C(=O)C2(O)O)cc1` (stereo not given), the result with L1210 and with Walker 256 was inactive.

As to `O=c1c(O)c(-c2ccc(Cl)cc2)oc2ccccc12`, the result with L1210 and in the test with Walker 256 was inactive.

As for `CCOC(=O)c1oc2cc(O)cc(O)c2c(=O)c1-c1ccc(OC)cc1`, the result with L1210 and in the test with CCRF S-180 was inactive. For the same compound, in the test on KB, the EC50 is 21 µg/mL (≈ 58.9 µM). For the same compound, in test [1], the result was Active.

Take `COc1ccccc1-c1cc(=O)c2ccc(OC)c(OC)c2o1`: the result (with CA-755; in the test with L1210; in test [1]; in the test with CCRF S-180) was inactive. In the test on KB, the EC50 stood at 4 µg/mL (≈ 12.8 µM).

For `O=c1cc(-c2ccccc2)oc2cc(O)cc(O)c12` [CHRYSIN], the outcome in the test with L1210 and in the test with Walker 256 was inactive. In the test with KB, the EC50 was found to be 13 µg/mL (≈ 51.1 µM).

Regarding `CCOC1(O)C(=O)c2ccccc2OC1(OCC)c1ccccc1` (stereo not given), the outcome in the test with L1210 and in the test on Walker 256 was inactive.

Regarding `COc1cc(O)c2c(=O)c(OC)c(-c3ccc(OC)c(OC)c3)oc2c1` [RETUSIN], the result in the test with CA-755, with L1210 and with CCRF S-180 was inactive. Further, the EC50 in the test with KB amounted to 41 µg/mL (≈ 114 µM).

`O=c1cc(-c2ccccc2)oc2cc(O)ccc12`: the outcome (in the test with L1210; in test [1]; with CCRF S-180) was inactive.

Consider `COc1ccc(-c2cc(=O)c3c(OC)c(OC)c(OC)c(OC)c3o2)c(OC)c1`, for which, in the test on KB, the EC50 was 15 µg/mL (≈ 37.3 µM). The result (in test [1]; in the test on CCRF S-180) was inactive.

In the case of `C[C@@H]1O[C@@H](Oc2c(-c3cc(O)c(O)c(O)c3)oc3cc(O)cc(O)c3c2=O)[C@H](O)[C@H](O)[C@H]1O`, the outcome (in the test with CA-755; in the test on L1210; in test [1]; in the test on CCRF S-180) was inactive. Moreover, the EC50 in the test with KB was determined as 8.3 µg/mL (≈ 17.9 µM).

Turning to `O=C1CC(c2ccc(O)cc2)Oc2cc(O)cc(O)c21` (stereo not given), the outcome (in the test with CA-755; in the test on L1210; in test [1]; in the test with CCRF S-180) was inactive.

Consider `O=c1cc(-c2ccccc2F)oc2ccccc12`, for which the result (with L1210; in test [1]; in the test on CCRF S-180) was inactive.

On to `COc1cc(OC)c(-c2cc(=O)c3c(OC)c(OC)c(OC)c(OC)c3o2)cc1OC`, for which the outcome in the test on Walker 256 was Active. In the test on KB, the EC50 worked out at 13 µg/mL (≈ 30.1 µM). Besides, the outcome in test [1] was inactive.

In the case of `O=c1c(O)c(-c2ccc(O)c(O)c2)oc2cc(O)cc(O)c12` [QUERCETIN], the result in the test with Walker 256 was Active. In the test with KB, the EC50 was determined as 25 µg/mL (≈ 82.7 µM).

Turning to `Nc1c(-c2ccccc2)oc2ccccc2c1=O`, the outcome in the test on CA-755, in the test on L1210 and in the test on CCRF S-180 was inactive. Further, in the test on KB, the EC50 is over 100 µg/mL.

Take `O=C1c2ccc(O)cc2OC(c2cc(O)c(O)c(O)c2)C1O` (stereo not given) [DIHYDROBINETIN]: the outcome in the test on CA-755, in the test on L1210 and in the test on CCRF S-180 was inactive. The EC50 in the test on KB came to 23 µg/mL (≈ 75.6 µM).

Regarding `Cc1oc2cc(O)ccc2c(=O)c1-c1ccccc1`, the result with L1210 and with Walker 256 was inactive.

In the case of `COc1c(OC)c(OC)c2c(c1OC)OC(c1ccc(O)cc1)CC2=O` (stereo not given), the result in the test on CA-755, with L1210 and with CCRF S-180 was inactive. Besides, the EC50 with KB amounted to 26 µg/mL (≈ 72.1 µM).

On to `O=C1/C(=N\O)C(c2ccccc2)Oc2ccccc21` (stereo not given), for which the outcome with CA-755, in the test with L1210 and in the test on CCRF S-180 was inactive. Also, the EC50 in the test with KB was determined as 35 µg/mL (≈ 138 µM).

For `O=c1cc(-c2cccc([N+](=O)[O-])c2)oc2ccccc12`, the result in the test on CA-755, in the test with L1210 and in the test on CCRF S-180 was inactive. In addition, the EC50 in the test on KB was 2 µg/mL (≈ 7.48 µM).

In the case of `COc1c(OC)c(OC)c(-c2cc(=O)c3c(OC)c(OC)c(OC)c(OC)c3o2)c(OC)c1OC`, in the test with KB, the EC50 is 4 µg/mL (≈ 8.12 µM). In addition, in test [1], the outcome was inactive.

With `COc1ccc2c(c1)C(=O)CC(c1ccccc1OC)O2` (stereo not given), the outcome in the test on CA-755, with L1210 and in the test with CCRF S-180 was inactive. In addition, the EC50 with KB was 24 µg/mL (≈ 84.4 µM).

Turning to `COc1ccc(C2(OC)Oc3cc(OC)ccc3C(=O)C2(O)OC)cc1` (stereo not given), the result in the test on L1210 and in the test with Walker 256 was inactive.

Take `COc1ccc(-c2oc3ccc(C)cc3c(=O)c2O)cc1`: the result (in the test with CA-755; in the test on L1210; in test [1]; with CCRF S-180) was inactive. In addition, the EC50 in the test on KB was found to be 2 µg/mL (≈ 7.08 µM).

As to `COc1c(OC)c(OC)c2c(=O)cc(-c3ccc(OC(C)=O)cc3)oc2c1OC`, the outcome (with CA-755; in test [1]; in the test on CCRF S-180) was inactive. For the same compound, the EC50 with KB was 3 µg/mL (≈ 7.49 µM).

In the case of `O=c1cc(-c2ccc(O)cc2)oc2c(O)c(O)c(O)cc12`, the outcome (in the test with Walker 256; in test [1]) was inactive. The EC50 in the test on KB came out at 22 µg/mL (≈ 76.9 µM).

In the case of `COc1c(OC)c(OC)c2c(=O)cc(-c3ccc4c(c3)OCO4)oc2c1OC`, in the test with Walker 256, the result was inactive.

As to `O=c1c(-c2ccc3c(c2)OCO3)coc2cc(O)ccc12`, the result in the test with L1210 and with Walker 256 was inactive.

As to `COc1ccc(-c2cc(=O)c3ccccc3o2)c(OC)c1OC`, the result (in the test on CA-755; in the test on L1210; in test [1]; in the test on CCRF S-180) was inactive. Besides, the EC50 with KB is 13 µg/mL (≈ 41.6 µM).
